The numbers were not newly measured in paper PMC4962924 (Chemistry (Weinheim an der Bergstrasse, Germany), 2016), which cites them from elsewhere.

The term IC50 denotes the concentration that inhibits the measured activity by half.

Molecules are shown by their SMILES.

In the series the test system is Hsp90. Conditions: natural product C-terminal inhibitors; ref [25],[26].

For `CO[C@@H]1[C@@H](OC(N)=O)[C@@H](O)[C@H](Oc2ccc3c(O)c(NC(=O)c4ccc(O)c(CC=C(C)C)c4)c(=O)oc3c2C)OC1(C)C` [novobiocin], the IC50 was […].
As to `CO[C@H]1[C@H](OC(=O)c2ccc(C)[nH]2)[C@H](O)[C@@H](Oc2ccc3c(O)c(NC(=O)c4c[nH]c(C(=O)Nc5c(O)c6ccc(O[C@H]7OC(C)(C)[C@@H](OC)[C@H](OC(=O)c8ccc(C)[nH]8)[C@@H]7O)c(C)c6oc5=O)c4C)c(=O)oc3c2C)OC1(C)C` [coumermycin A1], the IC50 was 70 µM.
